Broadly, the IC80 is the point of the concentration-response curve where the effect stands at 80%. By IC50 is commonly meant the midpoint of a concentration-inhibition curve.

The values below come from patent US12054714B2, “Peptide docking vehicle for targeted nucleic acid delivery” (Sirnaomics, Inc., priority 2019, dated 2024).

{GalNAc3} = trivalent GalNAc cluster through an NHC6 amino-hexyl linker

Data set [1] concerns TTR. The data set is described as follows: Dose-response screen of GalNAc-conjugated siRNAs in primary mouse hepatocytes, bDNA read-out. In kind it is cell-based. The note with it: direct incubation 72 hours. The method, then:
(§1) Dose-response screens for GalNAc-conjugated siRNAs (mTTR1-PDoV3-GalNAc3, mTTR1-PDoV2-GalNAc3, mTTR2-GalNAc3 positive control, mTTR2-GalNAc3 positive control) were performed using primary mouse hepatocytes for target TTR. The cell density was 40000 cells/96 well. The concentration was from: highest at 1 μM in 5-fold dilutions to lowest at […]. Cells were transfected by direct incubation for 72 hours. The data was read out by bDNA assay. The data was analyzed by XLfit software. TTR signal normalized to gapdh, mean of quadruplicates, mock-treated cells set=1, Xlfit for calculation of IC50 values. The primary hepatocytes used were purchased from Primacyt, Germany (lot MH181219), derived from CD 1 mice, and treated with siRNA right after thawing.
(§2) The two siRNAs were both conjugated to trivalent GalNAc clusters at the 3′ end (mTTR2 siRNA sequence was a fully modified sequence and 4 more additional PS linkages modification on the oligonucleotides than mTTR1. (Nair, et al., J. Am. Chem. Soc. 136:16958-16961(2014). Aha1-GaNAc3 positive control was used as a standard control, targeted to the housekeeper ahsa1. This was used as both negative and positive control, hybridizing the cell lysates either to the screening target or to an ahsa1-specific probe. Table e1 lists the sequences of the 2 control siRNAs and the structure of the GalNAc cluster. Table e1. Control siRNA sequence and targets. (Images discloses SEQ ID NOS 36, 47-48, 59, and 47-48, respectively, in order of appearance)

For data set [2], the system named is ahsa1. The data set can be described thus: Dose-response screen in primary mouse hepatocytes, ahsa1-specific probe (standard control). The note with it: 72 hours. The data set is classed as cell-based. How it is done:
as §1, §2

Turning to “mTTR2-GalNAc3 positive control: fully modified siRNA against mouse TTR conjugated to trivalent GalNAc cluster at the 3′ end (SEQ ID NO: 39/40; Nair et al.) (chain 1 AACAGUGUUCUUGCUCUAUAA; chain 2 UUAUAGAGCAAGAACACUGUUUU; chain 1: linkages s2 o18 (s phosphorothioate, o phosphodiester), 3' {GalNAc3}, sugars by position and methylation of C not given here; chain 2: linkages s2 o18 s2 (s phosphorothioate, o phosphodiester), sugars by position and methylation of C not given here; fully modified, Nf 2'-fluoro, further chemistry not fully specified)”, the IC80 in data set [1] (TTR signal normalized to gapdh) is 0.3 nM. The IC50 in data set [1] (TTR signal normalized to gapdh, Xlfit) came to 0.1 nM. For the same substance, the “Max. KD” value in data set [1] (highest concentration 1 μM) came out at 96%.

Turning to “aha1-GalNAc3 positive control: standard control siRNA targeted to the housekeeper ahsa1, conjugated to trivalent GalNAc cluster at 3′ end (SEQ ID NO: 41/42) (chain 1 UCUCGUGGCCUUAAUGAAA; chain 2 UUUCAUUAAGGCCACGAGAUU; chain 1: linkages s2 o16 (s phosphorothioate, o phosphodiester), 3' {GalNAc3}, sugars by position and methylation of C not given here; chain 2: linkages s2 o16 s2 (s phosphorothioate, o phosphodiester), sugars by position and methylation of C not given here; further chemistry not fully specified)”, in data set [2], 1.5 nM corresponded to half-maximal inhibition (IC50), the 80% effect concentration (IC80) was 5.9 nM and the “Max. KD” value is given as 96%.
